For data set [1] the following is noted: in vivo; cited from earlier work.
Data set [2] has as its target T1, dehydroepiandrosterone sulphatase (DHA-STS) (Homo sapiens, UniProt P08842).
T1 sequence (P08842 22-583): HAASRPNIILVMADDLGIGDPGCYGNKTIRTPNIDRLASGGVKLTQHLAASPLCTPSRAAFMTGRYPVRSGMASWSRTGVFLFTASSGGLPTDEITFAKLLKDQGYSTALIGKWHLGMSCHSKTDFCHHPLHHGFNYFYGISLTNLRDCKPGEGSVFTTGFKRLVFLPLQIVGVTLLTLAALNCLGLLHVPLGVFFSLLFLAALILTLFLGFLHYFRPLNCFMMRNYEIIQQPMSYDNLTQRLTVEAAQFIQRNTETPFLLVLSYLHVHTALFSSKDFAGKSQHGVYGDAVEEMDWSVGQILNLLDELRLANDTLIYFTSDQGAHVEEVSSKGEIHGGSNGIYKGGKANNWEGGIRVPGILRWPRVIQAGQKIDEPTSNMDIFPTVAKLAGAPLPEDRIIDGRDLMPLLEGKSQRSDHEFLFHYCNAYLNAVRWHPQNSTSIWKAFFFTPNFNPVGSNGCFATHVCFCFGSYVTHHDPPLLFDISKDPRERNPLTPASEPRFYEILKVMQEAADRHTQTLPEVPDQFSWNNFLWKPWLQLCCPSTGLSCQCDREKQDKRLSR
The settings on record: read-out: IC50 for inhibition of DHEA sulphatase in placental microsomes; from Ref. 25; cited from earlier work.

Data set [3] deals with T2, oestrone sulphatase (E1-STS) (Homo sapiens, UniProt P08842).
T2 sequence (P08842 22-583): T1 sequence (P08842 22-583)
Further details: endogenous in cells; host or cells: MCF-7 breast cancer cells. To be noted: 0.1 μM; cited from earlier work.

Data set [4] addresses T2, oestrone sulphatase (E1-STS). The settings on record: for E1-STS inhibitory potency compared with COUMATE: placental microsomes.
For data set [5] the target is unchanged. To be noted: cited from earlier work; for Mode of E1-STS inhibition: literature.
The next data set deals with T3, rat liver DHA-STS (Rattus norvegicus, UniProt P15589).
T3 construct: host or cells: rat liver, after dosing in vivo
T3 sequence (P15589 20-577): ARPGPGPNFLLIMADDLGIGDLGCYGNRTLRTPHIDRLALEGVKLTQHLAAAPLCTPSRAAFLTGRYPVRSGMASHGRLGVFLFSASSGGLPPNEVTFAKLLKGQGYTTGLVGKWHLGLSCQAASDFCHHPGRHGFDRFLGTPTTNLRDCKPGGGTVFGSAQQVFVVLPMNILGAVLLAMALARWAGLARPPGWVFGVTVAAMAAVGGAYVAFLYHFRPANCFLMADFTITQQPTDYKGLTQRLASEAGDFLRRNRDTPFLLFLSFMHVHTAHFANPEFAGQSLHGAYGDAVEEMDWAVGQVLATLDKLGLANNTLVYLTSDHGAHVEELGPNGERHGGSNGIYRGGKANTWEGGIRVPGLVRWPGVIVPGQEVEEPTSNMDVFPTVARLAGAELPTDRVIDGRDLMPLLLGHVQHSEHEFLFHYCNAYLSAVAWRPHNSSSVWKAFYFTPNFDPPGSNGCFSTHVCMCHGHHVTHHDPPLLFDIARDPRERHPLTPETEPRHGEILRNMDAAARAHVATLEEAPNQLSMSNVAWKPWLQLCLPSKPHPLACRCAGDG
To be noted: administered orally or subcutaneously; cited from earlier work.

The target in data set [6] is T4, E1-STS (Homo sapiens, UniProt P08842).
T4 sequence (P08842 22-583): T1 sequence (P08842 22-583)
In words: Substrate test: hydrolysis of coumarin sulphates by placental microsomes in absence or presence of EMATE. To be noted: 100 μg, 1 h, placental microsomes ± EMATE 10 μM.

Data set [7] concerns the target T4, E1-STS. To be noted: previous work, Ref. 28; cited from earlier work.
Data set [8] in a line: Chemical and thermal stability of coumarin sulphate. To be noted: sodium hydroxide in methanol. In kind it is physicochemical.
Data set [9] addresses T2, oestrone sulphatase (E1-STS). Nature of the data set: Time- and concentration-dependent inactivation of oestrone sulphatase in placental microsomes (preincubation). In kind it is biochemical.
Data set [10] deals with T5, E1-STS (Rattus norvegicus, UniProt P15589).
T5 construct: The E1-STS activity in the uteri obtained from these animals; from tissue; host or cells: uteri of ovariectomised rats dosed in vivo
T5 sequence (P15589 20-577): T3 sequence (P15589 20-577)
In words: E1-STS activity in uteri of treated ovariectomised rats. The data set is classed as in vivo. The settings on record: 1 mg/kg s.c. for 5 days.

For data set [11], the system named is ovariectomized rats. To be noted: oral, from Ref. 31; cited from earlier work.
For data set [12], the target named is T2, oestrone sulphatase (E1-STS). The settings on record: cited from earlier work.
A further data set addresses T6, oestrone sulphatase (Rattus norvegicus, UniProt P15589).
T6 construct: from tissue; host or cells: white blood cells of orally dosed rats
T6 sequence (P15589 20-577): T3 sequence (P15589 20-577)
Nature of the data set: Sulphatase activity in white blood cells of rats after oral dosing. The data set is classed as in vivo.

The next data set deals with ovariectomised rats. Nature of the data set: Oestrogenic activity: uterine weight in ovariectomised rats. To be noted: 1 mg/kg s.c. for 5 days. In kind it is in vivo, rat.
Data set [13] deals with T2, oestrone sulphatase (E1-STS). Nature of the data set: Inhibition of oestrone sulphatase (E1-STS) in intact MCF-7 breast cancer cells. To be noted: 10 μM.
In data set [14] the test system is ovariectomized rats. Nature of the data set: Oestrogenicity after oral administration: E1S-stimulated uterine growth in ovariectomized rats. The data set is classed as in vivo, rat. An excerpt: The oestrogenic activity of 17 was also studied.

pIC50: −log10 of the molar value. Like-named read-outs stand apart in the source and are kept apart here.

In the case of `C[C@]12CC[C@@H]3c4ccc(OS(=O)(=O)O)cc4CC[C@H]3[C@@H]1CCC2=O` [E1S, oestrone sulphate], the Half-life in blood in data set [1] was 10 to 12 h.
The term pIC50 denotes the IC50 on a negative log10 scale, so that one unit is a factor of ten. As to `C[C@]12CC[C@@H]3c4ccc(OS(N)(=O)=O)cc4CC[C@H]3[C@@H]1CCC2=O` [EMATE, oestrone-3-sulphamate], the pIC50 in data set [2] was 6.96; in data set [4], 7.60. The “% inhibition of E1-STS activity in intact MCF-7 cells” value in [3] is given as “more than 99%”. The “Mode of E1-STS inhibition” value in [5] is “time- and concentration-dependent manner”. The KI (inactivation) in [5] (read-out: Apparent Ki for E1-STS inactivation, from Ref. 25) is 670 nM. In addition, the “Inhibition of rat liver DHA-STS activity” value on rat liver DHA-STS is 99%.
`CCc1cc(=O)oc2cc(OS(N)(=O)=O)ccc12` [compound 4, 4-Ethylcoumarin-7-O-sulphamate]: the figures for the “% Inhibition ± S.D. of E1-STS activity in placental microsomes” value (“% Inhibition ± S.D. of E1-STS activity” below) in [4] (0.1 μM (Table 1)), in data set [4] (1 μM (Table 1)) and in [4] (10 μM (Table 1)) were 35 ± 1%, 88 ± 1% and above 99%, respectively. Besides, the “E1-STS inhibitory potency compared with COUMATE” value in [4] is recorded as “more potent E1-STS inhibitors than COUMATE”.
In the case of `CCCc1cc(=O)oc2cc(OS(N)(=O)=O)ccc12` [compound 6, 4-(n-Propyl)coumarin-7-O-sulphamate], the “% Inhibition ± S.D. of E1-STS activity” value is given as 42 ± 2% in data set [4] (0.1 μM (Table 1)), 94 ± 1% in data set [4] (1 μM (Table 1)) and 96 ± 1% in data set [4] (10 μM (Table 1)). For the same molecule, the “E1-STS inhibitory potency compared with COUMATE” value in data set [4] is given as “more potent E1-STS inhibitors than COUMATE”.
Take `CCc1c(C)c2ccc(OS(N)(=O)=O)cc2oc1=O` [compound 8, 3-Ethyl-4-methylcoumarin-7-O-sulphamate]: the “% Inhibition ± S.D. of E1-STS activity” value is on record as 57 ± 1% in data set [4] (0.1 μM (Table 1)), 96 ± 1% in [4] (1 μM (Table 1)) and above 99% in [4] (10 μM (Table 1)). The “E1-STS inhibitory potency compared with COUMATE” value in [4] is “more potent E1-STS inhibitors than COUMATE”.
On to `CCCc1c(C)c2ccc(OS(N)(=O)=O)cc2oc1=O` [compound 11, 4Methyl-3-(n-propyl)coumarin-7-O-sulphamate], for which the “% Inhibition ± S.D. of E1-STS activity” value was 83 ± 1% in data set [4] (0.1 μM (Table 1)), 97 ± 1% in data set [4] (1 μM (Table 1)) and above 99% in [4] (10 μM (Table 1)). Besides, the “E1-STS inhibitory potency compared with COUMATE” value in data set [4] is on record as “more potent E1-STS inhibitors than COUMATE”.
What is called melting point is the temperature of the solid-liquid transition. As for `Cc1cc(=O)oc2cc(OS(=O)(=O)[O-])ccc12.[Na+]` [compound 12, 7-(Sulphoxy)-4-Methylcoumarin, sodium salt], the melting point is 172 to 175 °C (dec.). In addition, the “Substrate for E1-STS” value on E1-STS [6] was “the coumarin sulphate is indeed a substrate for the sulphatase”. Moreover, the “Substrate for E1-STS” value on E1-STS [7] is on record as “substrate for E1-STS”. The “Stability in basic and acidic conditions” value in [8] was “stable in bases such as sodium hydroxide in methanol but not in acidic conditions”.
For `Cc1cc(=O)oc2cc(OS(N)(=O)=O)ccc12` [compound 14], the “Mode of E1-STS inhibition” value in data set [9] is “time- and concentration-dependent manner in a biphasic fashion”. For the same molecule, on E1-STS [10], the “Inhibition of E1-STS activity in uteri compared with untreated animals” value amounted to 89.4%. Moreover, the “Oestrogenicity” value with ovariectomized rats [11] is “devoid of oestrogenicity”. The “% Inhibition ± S.D. of E1-STS activity” value in data set [12] (0.1 μM (Table 1, reproduced from Ref. 28)) was below 10%; in [12] (1 μM (Table 1, reproduced from Ref. 28)) it was 63 ± 1%. Also, on oestrone sulphatase, the “Oral activity in rats” value is recorded as “potent oral activity”. The figures for the “% Inhibition of sulphatase activity in white blood cells, MD” value on oestrone sulphatase (daily for seven days 0.1 mg/kg), at oestrone sulphatase (daily for seven days 1.0 mg/kg) and at oestrone sulphatase (daily for seven days 10.0 mg/kg) were 65%, 85% and 89%, respectively. Besides, the “Effect on uterine weight (oestrogenic activity)” value with ovariectomised rats was “did not result in any significant increase in the uterine weight”.
As to `NS(=O)(=O)Oc1ccc2c(C(F)(F)F)cc(=O)oc2c1` [compound 16], the “% inhibition of E1-STS in intact MCF-7 cells” value in [13] was 71.5%.
As to `NS(=O)(=O)Oc1ccc2c3c(c(=O)oc2c1)CCCCC3` [compound 17, 6-Oxo-8,9,10,11-tetrahydro-7H-cyclohepta-[c][1]benzopyran-3-O-sulphamate], the results for the “Oestrogenicity” value with ovariectomized rats [14] and with ovariectomized rats [14] (listed as 667COUMATE) were “devoid of oestrogenicity” and “not being oestrogenic”, respectively.
For the molecule `O=c1oc2cc(OS(=O)(=O)O)ccc2c2c1CCCCC2` [compound 18, 6-Oxo-3-sulfooxy-8,9,10,11-tetrahydro-7H-cyclohepta-[c][1]-benzopyran], the “Substrate for E1-STS” value at E1-STS [6] is recorded as “is a substrate for this enzyme”.
`NS(=O)(=O)Oc1ccc2c3c(c(=O)oc2c1)CCCCCC3` [compound 20, 6-Oxo-7,8,9,10,11,12-hexahydro-cycloocta-[c][1]benzopyran-3-O-sulphamate]: the “% Inhibition ± S.D. of E1-STS activity” value in [4] (0.01 μM (Table 2)) was 17 ± 2%; in data set [4] (0.1 μM (Table 2)), 89 ± 1%; in data set [4] (1 μM (Table 2)), above 99%. In addition, the “Inhibition of E1-STS in placental microsomes” value in [4] (1 μM) is recorded as “almost complete inhibition”.
Turning to `NS(=O)(=O)Oc1ccc2c(c1)OC(=O)CC1=C2CCCC1` [compound 22, 6-Oxo-6,7,8,9,10,11-hexahydrodibenz[b,d]oxepin-3-O-sulphamate], the results for the “% Inhibition ± S.D. of E1-STS activity” value in [4] (0.01 μM (Table 2)), in data set [4] (0.1 μM (Table 2)) and in [4] (1 μM (Table 2)) were below 10%, 31 ± 5% and 94 ± 2%, respectively.
Take Coumarin-7-O-sulphamate [compound 13]: the “% Inhibition ± S.D. of E1-STS activity” value in data set [12] (10 μM (Table 1, reproduced from Ref. 28)) is given as 78 ± 1%. Also, the “% Inhibition of E1-STS activity in placental microsomes” value in [12] (50 μM (footnote a, Ref. 28)) is on record as above 90%.
With oestrone-3-N-sulphamate, the “Mode of E1-STS inhibition” value in data set [5] was “weaker non-time-dependent inactivators”.
Regarding oestrone-3-S-sulphamate, in [5], the “Mode of E1-STS inhibition” value is “weaker non-time-dependent inactivators”.

(Values after patent US6921776B1, “Compound” (Sterix Limited, priority 1996, dated 2005).)
